The values below come from patent publication US11969428B2, “Methods and pharmaceutical compositions for treating lymphoid malignancy” (priority 2011, dated 2024).

pIC50: −log10 of the molar value.

The target of one series is p110α (Homo sapiens, UniProt P42336). Nature of the series: ex-vivo PI3 kinase assay using recombinant PI3K. Particulars: ATP at Km. Format: biochemical. The protocol: CAL-130 is a derivative of IC87114 (Gilead Sciences, Foster City, CA), the synthesis of which has been previously described (Sadhu et al., 2003 and Sadhu et al., U.S. Pat. Nos. 6,518,277 and 6,667,300, which are incorporated by reference as if recited in full herein). […] values for CAL-130 inhibition of PI3K isoforms were determined in ex-vivo PI3 kinase assays using recombinant PI3K. A 10-point kinase inhibitory profile was determined with ATP at a concentration consistent with the Km for each enzyme (Puri et al., 2004).

Another series relates to Akt/PKB phosphorylation. Nature of the series: TCR-induced Akt/PKB phosphorylation in thymocytes (Western blot). Format: cell-based, mouse. Particulars: thymocytes from 6 week old wild type animals. Here is the method:
Cell lysates (from cell lines or thymocytes) were prepared on ice in M-PER Mammalian Protein Extraction reagent (Pierce) containing a cocktail of protease and phosphatase inhibitors (Swat et al., 2006). Equal amounts of total protein from lysates were subjected to SDS-PAGE, transferred to PVDF membrane (Immobilon-P, Millipore), and membranes probed by overnight incubation with appropriate primary antibodies. Bound antibodies were visualized with HRP-conjugated secondary antibodies and ECL chemistry (SuperPico West, Pierce).
To assess the requirement for p110δ in TCR-induced phosphorylation of Akt/PBK, single-cell suspensions of thymocytes (1×10^8/mL) from PI3Kγ-deficient animals were incubated with the p110δ-specific inhibitor IC87114 (10 μM) or with vehicle control (DMSO) for 30 minutes before TCR cross-linking, as described for the Ca^2+ flux assay. Aliquots (100 μL) were collected at 0, 10, 30, and 60 minutes after TCR cross-linking, briefly centrifuged to pellet, and subsequently lysed with ice-cold M-Per (Pierce, Rockford, IL) (according to the manufacturer's recommendations) that contained a cocktail of phosphatase and protease inhibitors (Puri et al., 2005). Lysates were clarified by centrifugation (12,000 g for 15 minutes at 4° C.), and total and phosphorylated Akt/PBK were determined by Western blot analysis.

The nature of the next series: Plasma levels of CAL-130. Format: in vivo, mouse. Conditions: 10 mg kg−1 orally, at the end of 8 hours. Here is the method:
For CAL-130 level determinations, animals received a single oral dose (10 mg kg^−1 or 20 mg kg^−1) of inhibitor. Plasma was collected at 0, 2, 4, 8, and 12 hours and subjected to high-performance liquid chromatography-MS/MS (sensitivity 1 ng/mL). The concentration of CAL-130 in plasma was determined using a standard curve (analyte peak area versus concentration) generated with calibration standard pools. Values represent the mean (±SD) for four animals per group.

A further series deals with PI3Kα. Nature of the series: PI3Kα isoform selective cell-based assay (PDGF-stimulated SW3T3 cells, P-Akt). Particulars: compared to pan-PI3K/mTOR inhibitor BEZ235. Here is the method: For the analysis of p110α-mediated signaling, SW3T3 cells were placed in serum free media (3 hours) and incubated with either CAL-130 or the Pan-PI3K/mTor inhibitor BEZ235 (Selleck Chemicals) for 1 hour prior to stimulation with PDGF (10 ng/ml; Cell Signaling) for 10 minutes at 37° C. After washing once in cold phosphate-buffered saline (PBS), the cell pellet was resuspended in lysis buffer (50 mM HEPES [N-2-hydroxyethylpiperazine-N-2-ethanesulfonic acid], pH 7.4, 150 mM NaCl, 10% glycerol, 1% Triton X-100, 1.5 mM MgCl2, 1 mM EGTA [ethylene glycol tetraacetic acid], 100 mM NaF, 1 mM phenylmethylsulfonyl fluoride, 1 mM NaVO4, 1 μg/ml leupeptin, and 1 μg/ml aprotinin) for 15 minutes on ice. Whole-cell lysates were obtained by centrifugation, and the soluble protein analyzed by Western blotting for Akt and P-Akt levels. Quantification was done using the Li-COR Odyssey imaging system.

Another series deals with platelets. Description: ADP-induced platelet aggregation. The series is classed as cell-based, mouse. Particulars: platelets from p110γ/δ double knockout mice 2 hours post administration of CAL-130 (10 mg kg−1). The protocol:
Blood was obtained from anesthetized p110δ/γ double knockout mice via cardiac puncture. Platelets were purified from PRP by centrifugation and resuspended to a final concentration of […] in buffer (145 mM NaCl, 10 mM Hepes, 0.5 mM Na2HPO4, 5 mM KCl, 2 mM MgCl2, 1 mM CaCl2, 0.1% glucose, pH 7.4). CAL-130 (1 μM, 2.5 μM, or 5 μM final concentration) or DMSO was added to platelet suspensions 5 minutes prior to inducing aggregation with ADP (25 μM). Mouse fibrinogen (final concentration 200 μg/ml) was also added to the platelet suspensions just prior to activation as previously described (Magallon et al., 2011). Aggregation was assessed using a Chronolog Lumi-Aggregometer (model 540 VS, Chronolog, Havertown, PA). In some experiments, blood was collected 2 hours after administering a single dose of CAL-130 (10 mg kg^−1) or vehicle control and ADP-induced aggregation evaluated.

In the next series the test system is CCRF-CEM xenografts. Nature of the series: Subcutaneous CCRF-CEM (CEM-luc) xenograft, bioluminescence. Particulars: 10 mg kg−1 every 8 hours for 4 days. Format: in vivo, mouse. The protocol:
For subcutaneous xenograft experiments, luminescent CCRF-CEM (CEM-luc) cells were generated by lentiviral infection with FUW-luc and selection with neomycin. Luciferase expression was verified with the Dual-Luciferase Reporter Assay kit (Promega Corp., Madison, WI). […] After 1 week, mice were treated by oral gavage with vehicle (0.5% methyl cellulose, 0.1% Tween-80), or CAL-130 (10 mg kg^−1) (Gilead Sciences, Foster City, CA) every 8 hours daily for 4 days and then tumors imaged as follows: mice anesthetized by isoflurane inhalation were injected intraperitoneally with D-luciferin (50 mg kg^−1, Xenogen, Calipers Life Sciences, Hopkinton, MA). Photonic emission was imaged with the In Vivo Imaging System (IVIS, Xenogen). Tumor bioluminescence was quantified by integrating the photonic flux (photons per second) through a region encircling each tumor using the LIVING IMAGES software package (Xenogen).
In the former, luciferase expressing CCRF-CEM cells were injected into the flanks of immunodeficient mice and allowed to grow for 1 week before administering vehicle control or inhibitor (10 mg kg^−1 every 8 hours) for a total of 4 days. In the latter, treatment commenced 3 days post-injection of tumor cells for a total of 7 days. […]

Sequence of p110α (P42336 whole entry, species assumed, canonical isoform): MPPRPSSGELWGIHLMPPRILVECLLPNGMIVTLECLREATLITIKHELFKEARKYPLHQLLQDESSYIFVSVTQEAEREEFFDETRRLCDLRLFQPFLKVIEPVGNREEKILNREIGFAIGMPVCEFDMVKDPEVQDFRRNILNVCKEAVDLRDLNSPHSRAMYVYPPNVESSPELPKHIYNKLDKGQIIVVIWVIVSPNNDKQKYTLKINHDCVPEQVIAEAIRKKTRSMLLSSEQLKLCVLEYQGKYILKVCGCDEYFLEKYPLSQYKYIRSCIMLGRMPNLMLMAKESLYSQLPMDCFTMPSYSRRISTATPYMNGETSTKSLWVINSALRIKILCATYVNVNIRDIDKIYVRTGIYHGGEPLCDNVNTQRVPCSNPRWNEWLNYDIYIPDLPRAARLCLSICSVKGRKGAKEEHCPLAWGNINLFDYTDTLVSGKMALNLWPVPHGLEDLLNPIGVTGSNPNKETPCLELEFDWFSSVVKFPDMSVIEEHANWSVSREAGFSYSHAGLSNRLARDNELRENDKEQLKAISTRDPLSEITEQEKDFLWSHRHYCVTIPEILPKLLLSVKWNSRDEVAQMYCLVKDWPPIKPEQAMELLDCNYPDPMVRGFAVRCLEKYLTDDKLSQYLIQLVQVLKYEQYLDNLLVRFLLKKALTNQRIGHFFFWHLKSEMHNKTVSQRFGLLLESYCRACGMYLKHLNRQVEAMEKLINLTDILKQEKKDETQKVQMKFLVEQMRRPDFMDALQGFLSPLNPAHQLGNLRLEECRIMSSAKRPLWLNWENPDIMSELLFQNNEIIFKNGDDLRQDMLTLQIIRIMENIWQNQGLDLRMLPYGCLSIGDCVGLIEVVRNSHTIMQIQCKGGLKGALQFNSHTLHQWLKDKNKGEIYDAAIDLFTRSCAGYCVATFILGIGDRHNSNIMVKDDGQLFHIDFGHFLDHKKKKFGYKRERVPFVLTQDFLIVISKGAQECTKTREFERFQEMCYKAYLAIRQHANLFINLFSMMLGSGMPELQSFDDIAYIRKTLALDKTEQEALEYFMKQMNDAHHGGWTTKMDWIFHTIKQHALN
Sequence of p110α (P27986 whole entry partner, species assumed, canonical isoform): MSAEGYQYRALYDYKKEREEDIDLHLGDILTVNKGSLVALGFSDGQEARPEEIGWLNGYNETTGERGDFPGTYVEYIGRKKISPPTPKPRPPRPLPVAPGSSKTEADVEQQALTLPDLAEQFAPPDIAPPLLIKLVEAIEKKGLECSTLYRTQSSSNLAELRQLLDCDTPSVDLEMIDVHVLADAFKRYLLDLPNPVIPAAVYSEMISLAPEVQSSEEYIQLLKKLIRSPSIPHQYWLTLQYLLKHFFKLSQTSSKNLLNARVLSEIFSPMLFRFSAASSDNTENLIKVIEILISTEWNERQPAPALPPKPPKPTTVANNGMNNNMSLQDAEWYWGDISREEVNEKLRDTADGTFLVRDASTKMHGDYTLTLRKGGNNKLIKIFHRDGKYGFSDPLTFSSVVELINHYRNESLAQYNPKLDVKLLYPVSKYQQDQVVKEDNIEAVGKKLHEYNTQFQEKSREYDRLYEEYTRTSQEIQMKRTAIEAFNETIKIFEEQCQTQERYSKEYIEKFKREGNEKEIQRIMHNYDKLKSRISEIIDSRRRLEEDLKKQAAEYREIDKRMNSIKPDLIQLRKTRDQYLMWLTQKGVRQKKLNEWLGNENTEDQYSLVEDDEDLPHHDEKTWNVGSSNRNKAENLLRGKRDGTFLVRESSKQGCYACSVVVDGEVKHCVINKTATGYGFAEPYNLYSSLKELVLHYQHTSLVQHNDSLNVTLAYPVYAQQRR

As to `Cc1ccccc1-n1c(C(C)Nc2nc(N)nc3nc[nH]c23)nc2cccc(C)c2c1=O` (stereo not drawn) [CAL-130], the negative-log IC50 (pIC50) at p110α was 6.94. The “TCR induced Akt phosphorylation (Ser473)” value with Akt/PKB phosphorylation is on record as “prevented”. This compound came in with a plasma concentration in “Plasma levels of CAL-130” of 330 ± 180 nM. Besides, in the series on PI3Kα, the “PDGF-induced activation of PI3Kα (Akt phosphorylation)” value was “limited ability to impair”. In addition, the ADP-mediated platelet aggregation entry with platelets is “no obvious defect”. For the same compound, the “difference in luminescence, treated versus vehicle control” value with CCRF-CEM xenografts is 5 fold.
